Here are results for 77 sequences from the supplement of paper PMC11208160.
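Also: IS621 recombinase and bridge RNA in Escherichia coli cells.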

The series in a line: recombinant barcode read abundance after kanamycin selection (control-corrected) (log10(CPM+1)); higher = more efficient recombination; sequences stand for … in AGTGCAGAGAAAATCGGCCAGTTTTCTCTGCCTGCAGTCCGCATGCCGT…AGATTTATGCAGCGGACTGCCTTTCTCCCAAAGTGATAAACCGGACAGTATCATGGACCGGTTTTCCCGGTAATCCGTATTTGCAAGGTTGGTTTCACT; site = the 11-nt target. In outline:
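For this pooled screen, each oligo contained a promoter, a target, a barcode and the J23119-driven first 104 bases of the bridge RNA. Gibson cloning placed it into a vector supplying the remaining 73 bp and a T7-inducible recombinase, and the pool was co-electroporated into E. coli with a donor plasmid. Recombination efficiency is derived from barcode counts per million at recombinant junctions after averaging and control correction, and is expressed on a log scale as log10(CPM+1), with selection on chloramphenicol/ampicillin/kanamycin plus 0.1 mM IPTG against a chloramphenicol/ampicillin LB agar control.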
As for “CTAAATACTTGGGTTCTAACCTGTTGCGT (site CTAAATACTAC)”, the “recombinant barcode read abundance (log10)” value came to 1.54.

For “CTAAATACTTGGGTTCTAACCTGTTGCGT (site CTACATTCTAC)”, the “recombinant barcode read abundance (log10)” value was 0.00955.

For “CTAAGAACTTGGGTTCTAACCTGTTGCGT (site CTAAGAACTAA)”, the “recombinant barcode read abundance (log10)” value amounted to 0.0418.

In the case of “CTAAGAACTTGGGTTCTAACCTGTTGCGT (site CTAAGAACTAC)”, the “recombinant barcode read abundance (log10)” value worked out at 2.1.

As for “CTAAGAACTTGGGTTCTAACCTGTTGCGT (site CTAAGAACTAG)”, the “recombinant barcode read abundance (log10)” value was 0.264.

As for “CTAAGAACTTGGGTTCTAACCTGTTGCGT (site CTAAGAACTAT)”, the “recombinant barcode read abundance (log10)” value came to 0.615.

On to “CTAAGCGCTTGGGTTCTAACCTGTTGCCA (site CTAAGAGCTTG)”, for which the “recombinant barcode read abundance (log10)” value came to 0.145.

Consider “CTAAGCGCTTGGGTTCTAACCTGTTGCCA (site CTAAGCGCTTG)”, for which the “recombinant barcode read abundance (log10)” value turned out to be 0.647.

On to “CTAAGCGCTTGGGTTCTAACCTGTTGCCA (site CTAAGGGCTTG)”, for which the “recombinant barcode read abundance (log10)” value was found to be 0.205.

For “CTAAGCGCTTGGGTTCTAACCTGTTGCCA (site CTAAGTGCTTG)”, the “recombinant barcode read abundance (log10)” value turned out to be 0.0786.

Take “CTAAGCTCTTGGGTTCTAACCTGTTGCTT (site CTAAGCTCTAA)”: the “recombinant barcode read abundance (log10)” value was 0.0662.

With “CTAAGCTCTTGGGTTCTAACCTGTTGCTT (site CTAAGCTCTCA)”, the “recombinant barcode read abundance (log10)” value came out at 0.133.

Regarding “CTAAGCTCTTGGGTTCTAACCTGTTGCTT (site CTAAGCTCTGA)”, the “recombinant barcode read abundance (log10)” value worked out at 0.0802.

Take “CTAAGCTCTTGGGTTCTAACCTGTTGCTT (site CTAAGCTCTTA)”: the “recombinant barcode read abundance (log10)” value turned out to be 0.107.

Turning to “CTAAGGCCTTGGGTTCTAACCTGTTGCCT (site CTAAAGCCTAG)”, the “recombinant barcode read abundance (log10)” value amounted to 0.377.

In the case of “CTAAGGCCTTGGGTTCTAACCTGTTGCCT (site CTAAGGCCTAG)”, the “recombinant barcode read abundance (log10)” value was 0.162.

With “CTAAGGTCTTGGGTTCTAACCTGTTGCTA (site CTAAGGTCTTA)”, the “recombinant barcode read abundance (log10)” value was found to be 1.64.

“CTAAGGTCTTGGGTTCTAACCTGTTGCTA (site TCTTTAGCTCT)”: the “recombinant barcode read abundance (log10)” value was 0.123.

For the sequence “CTAAGTGCTTGGGTTCTAACCTGTTGCCA (site CTAAGAGCTTG)”, the “recombinant barcode read abundance (log10)” value amounted to 0.0354.

Turning to “CTAAGTGCTTGGGTTCTAACCTGTTGCCA (site CTAAGCGCTTG)”, the “recombinant barcode read abundance (log10)” value came out at 0.0378.

As to “CTAAGTGCTTGGGTTCTAACCTGTTGCCA (site CTAAGGGCTTG)”, the “recombinant barcode read abundance (log10)” value worked out at 0.0841.

Regarding “CTAAGTGCTTGGGTTCTAACCTGTTGCCA (site CTAAGTGCTTG)”, the “recombinant barcode read abundance (log10)” value was 0.35.

In the case of “CTAATATCTTGGGTTCTAACCTGTTGCCA (site CTAATATCTTG)”, the “recombinant barcode read abundance (log10)” value was 0.0293.

For “CTAATATCTTGGGTTCTAACCTGTTGCCA (site CTCATATCTTG)”, the “recombinant barcode read abundance (log10)” value was 0.128.

With “CTAATGTCTTGGGTTCTAACCTGTTGCCA (site CTAATGTCTAG)”, the “recombinant barcode read abundance (log10)” value worked out at 0.622.

For “CTAATGTCTTGGGTTCTAACCTGTTGCCA (site CTAATGTCTTG)”, the “recombinant barcode read abundance (log10)” value stood at 0.26.

“CTAATTACTTGGGTTCTAACCTGTTGCAA (site CTAAGTACTCT)”: the “recombinant barcode read abundance (log10)” value is 0.0716.

For “CTAATTACTTGGGTTCTAACCTGTTGCAA (site CTAATTACTTT)”, the “recombinant barcode read abundance (log10)” value amounted to 0.094.

For “CTACAAGCTTGGGTTCTAACCTGTTGCCT (site CTACAAGCTAG)”, the “recombinant barcode read abundance (log10)” value worked out at 1.34.

Regarding “CTACAAGCTTGGGTTCTAACCTGTTGCCT (site CTCCAAGCTAG)”, the “recombinant barcode read abundance (log10)” value was 0.279.

Take “CTACAAGCTTGGGTTCTAACCTGTTGCCT (site CTGCAAGCTAG)”: the “recombinant barcode read abundance (log10)” value stood at 0.155.

For “CTACAAGCTTGGGTTCTAACCTGTTGCCT (site CTTCAAGCTAG)”, the “recombinant barcode read abundance (log10)” value was 0.177.

As for “CTACAATCTTGGGTTCTAACCTGTTGCCT (site ATACAATCTAG)”, the “recombinant barcode read abundance (log10)” value is 0.0309.

As to “CTACAATCTTGGGTTCTAACCTGTTGCCT (site CTACAATCTAG)”, the “recombinant barcode read abundance (log10)” value was determined as 0.979.

“CTACAATCTTGGGTTCTAACCTGTTGCCT (site GTACAATCTAG)”: the “recombinant barcode read abundance (log10)” value is 0.0211.

On to “CTACAATCTTGGGTTCTAACCTGTTGCCT (site TTACAATCTAG)”, for which the “recombinant barcode read abundance (log10)” value is 0.0283.

In the case of “CTACACACTTGGGTTCTAACCTGTTGCTC (site CTACACACTGA)”, the “recombinant barcode read abundance (log10)” value amounted to 1.64.

As to “CTACACACTTGGGTTCTAACCTGTTGCTC (site CTACACACTTA)”, the “recombinant barcode read abundance (log10)” value is 0.0402.

Take “CTACAGACTTGGGTTCTAACCTGTTGCGA (site CTACAGACTAC)”: the “recombinant barcode read abundance (log10)” value was found to be 0.0546.

With “CTACAGACTTGGGTTCTAACCTGTTGCGA (site CTACAGACTCC)”, the “recombinant barcode read abundance (log10)” value is 1.04.

Take “CTACAGACTTGGGTTCTAACCTGTTGCGA (site CTACAGACTGC)”: the “recombinant barcode read abundance (log10)” value amounted to 0.0716.

As for “CTACAGACTTGGGTTCTAACCTGTTGCGA (site CTACAGACTTC)”, the “recombinant barcode read abundance (log10)” value came out at 2.73.

“CTACAGACTTGGGTTCTAACCTGTTGCGC (site CTACAGACTAC)”: the “recombinant barcode read abundance (log10)” value is 0.253.

Turning to “CTACAGACTTGGGTTCTAACCTGTTGCGC (site CTACAGACTCC)”, the “recombinant barcode read abundance (log10)” value came to 0.221.

As for “CTACAGACTTGGGTTCTAACCTGTTGCGC (site CTACAGACTGC)”, the “recombinant barcode read abundance (log10)” value was 1.21.

As for “CTACAGACTTGGGTTCTAACCTGTTGCGC (site CTACAGACTTC)”, the “recombinant barcode read abundance (log10)” value was determined as 0.503.

For “CTACAGACTTGGGTTCTAACCTGTTGCGG (site CTACAGACTAC)”, the “recombinant barcode read abundance (log10)” value came to 0.088.

Consider “CTACAGACTTGGGTTCTAACCTGTTGCGG (site CTACAGACTCC)”, for which the “recombinant barcode read abundance (log10)” value was 2.61.

For the sequence “CTACAGACTTGGGTTCTAACCTGTTGCGG (site CTACAGACTGC)”, the “recombinant barcode read abundance (log10)” value was 0.141.

With “CTACAGACTTGGGTTCTAACCTGTTGCGG (site CTACAGACTTC)”, the “recombinant barcode read abundance (log10)” value stood at 1.31.

“CTACAGACTTGGGTTCTAACCTGTTGCGT (site CTACAGACTAC)”: the “recombinant barcode read abundance (log10)” value turned out to be 1.81.

“CTACAGACTTGGGTTCTAACCTGTTGCGT (site CTACAGACTCC)”: the “recombinant barcode read abundance (log10)” value was 0.229.

Turning to “CTACAGACTTGGGTTCTAACCTGTTGCGT (site CTACAGACTGC)”, the “recombinant barcode read abundance (log10)” value was found to be 0.155.

“CTACAGACTTGGGTTCTAACCTGTTGCGT (site CTACAGACTTC)”: the “recombinant barcode read abundance (log10)” value was determined as 0.238.

Consider “CTACATTCTTGGGTTCTAACCTGTTGCGT (site CTAAATACTAC)”, for which the “recombinant barcode read abundance (log10)” value was 0.0752.

Regarding “CTACATTCTTGGGTTCTAACCTGTTGCGT (site CTACATTCTAC)”, the “recombinant barcode read abundance (log10)” value turned out to be 1.52.

“CTACGATCTTGGGTTCTAACCTGTTGCAC (site CTACGATCTGT)”: the “recombinant barcode read abundance (log10)” value was found to be 0.737.

For “CTACGATCTTGGGTTCTAACCTGTTGCAC (site CTACGCTCTGT)”, the “recombinant barcode read abundance (log10)” value came to 0.162.

With “CTACGATCTTGGGTTCTAACCTGTTGCAC (site CTACGGTCTGT)”, the “recombinant barcode read abundance (log10)” value was 0.375.

Take “CTACGATCTTGGGTTCTAACCTGTTGCAC (site CTACGTTCTGT)”: the “recombinant barcode read abundance (log10)” value stood at 0.365.

As to “CTACGCTCTTGGGTTCTAACCTGTTGCGA (site CTACGCTCTTC)”, the “recombinant barcode read abundance (log10)” value is 1.52.

With “CTACGCTCTTGGGTTCTAACCTGTTGCGA (site CTAGGCTCTCC)”, the “recombinant barcode read abundance (log10)” value is 0.452.

In the case of “CTACGGTCTTGGGTTCTAACCTGTTGCAC (site CTACGATCTGT)”, the “recombinant barcode read abundance (log10)” value was determined as 0.256.

For “CTACGGTCTTGGGTTCTAACCTGTTGCAC (site CTACGCTCTGT)”, the “recombinant barcode read abundance (log10)” value amounted to 0.238.

Turning to “CTACGGTCTTGGGTTCTAACCTGTTGCAC (site CTACGGTCTGT)”, the “recombinant barcode read abundance (log10)” value was 0.404.

For the sequence “CTACGGTCTTGGGTTCTAACCTGTTGCAC (site CTACGTTCTGT)”, the “recombinant barcode read abundance (log10)” value is 0.0783.

Turning to “CTACGTCCTTGGGTTCTAACCTGTTGCTC (site CTACGTCCTAA)”, the “recombinant barcode read abundance (log10)” value was 0.191.

Consider “CTACGTCCTTGGGTTCTAACCTGTTGCTC (site CTACGTCCTCA)”, for which the “recombinant barcode read abundance (log10)” value worked out at 0.942.

As for “CTACGTCCTTGGGTTCTAACCTGTTGCTC (site CTACGTCCTGA)”, the “recombinant barcode read abundance (log10)” value was 0.91.

For the sequence “CTACGTCCTTGGGTTCTAACCTGTTGCTC (site CTACGTCCTTA)”, the “recombinant barcode read abundance (log10)” value came to 0.0289.

As for “CTACGTTCTTGGGTTCTAACCTGTTGCAC (site CTACGATCTGT)”, the “recombinant barcode read abundance (log10)” value was 0.0857.

With “CTACGTTCTTGGGTTCTAACCTGTTGCAC (site CTACGCTCTGT)”, the “recombinant barcode read abundance (log10)” value amounted to 0.

Turning to “CTACGTTCTTGGGTTCTAACCTGTTGCAC (site CTACGGTCTGT)”, the “recombinant barcode read abundance (log10)” value amounted to 0.0816.

“CTACGTTCTTGGGTTCTAACCTGTTGCAC (site CTACGTTCTGT)”: the “recombinant barcode read abundance (log10)” value came out at 1.1.

For “CTACTAGCTTGGGTTCTAACCTGTTGCAG (site CTACTAGCTAT)”, the “recombinant barcode read abundance (log10)” value was found to be 0.173.

Regarding “CTACTAGCTTGGGTTCTAACCTGTTGCAG (site CTACTAGCTCT)”, the “recombinant barcode read abundance (log10)” value is 2.5.

“CTACTAGCTTGGGTTCTAACCTGTTGCAG (site CTACTAGCTGT)”: the “recombinant barcode read abundance (log10)” value came to 0.0122.
